One assay concerns the target T1, FSHR (Homo sapiens, UniProt P23945).
T1 construct: expressed in transfected cells; host or cells: CHO (Cho-FSHR-LUC-1-1-43)
T1 sequence (P23945 18-695): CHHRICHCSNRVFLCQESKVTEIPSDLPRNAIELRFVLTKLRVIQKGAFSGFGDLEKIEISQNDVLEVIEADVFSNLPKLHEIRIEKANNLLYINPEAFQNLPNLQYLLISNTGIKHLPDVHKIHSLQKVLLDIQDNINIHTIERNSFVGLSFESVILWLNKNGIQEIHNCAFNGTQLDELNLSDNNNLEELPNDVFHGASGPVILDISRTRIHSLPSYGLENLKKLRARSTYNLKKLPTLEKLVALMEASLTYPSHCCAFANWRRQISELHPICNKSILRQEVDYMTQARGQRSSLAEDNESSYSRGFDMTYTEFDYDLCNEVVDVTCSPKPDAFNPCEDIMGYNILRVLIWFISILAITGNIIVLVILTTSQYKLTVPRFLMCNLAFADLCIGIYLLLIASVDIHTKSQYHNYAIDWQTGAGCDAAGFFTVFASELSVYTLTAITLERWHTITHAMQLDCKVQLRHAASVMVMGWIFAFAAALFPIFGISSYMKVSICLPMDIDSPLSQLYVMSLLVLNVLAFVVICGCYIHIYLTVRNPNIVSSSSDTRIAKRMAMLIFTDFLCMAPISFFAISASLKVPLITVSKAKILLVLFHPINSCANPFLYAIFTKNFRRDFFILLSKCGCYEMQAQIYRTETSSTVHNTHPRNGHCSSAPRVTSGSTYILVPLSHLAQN
The assay can be described thus: EC50 of cyclic AMP production in CHO FSHR cells + EC20 FSH (Assay A). In kind it is cell-based. To be noted: cyclic AMP production in CHO FSHR cells + EC20 FSH (0.265 pM), HTRF. Put shortly:
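CHO cells expressing FSHR, stimulated 1 h at 37° C with compound plus EC20 FSH (0.265 pM final) and 200 μM IBMX. cAMP measured by HTRF (665/620 nm ratio) after 1 h at room temperature; effect expressed relative to maximum response of FSH standard.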
(TR-FRET usually uses a lanthanide donor and a delayed reading to cut background.)

Assay [1] has as its target T2, follicle-stimulating hormone (FSH) receptor (Rattus norvegicus, UniProt P20395).
T2 construct: endogenous in cells; host or cells: rat granulosa cells
T2 sequence (P20395 18-692): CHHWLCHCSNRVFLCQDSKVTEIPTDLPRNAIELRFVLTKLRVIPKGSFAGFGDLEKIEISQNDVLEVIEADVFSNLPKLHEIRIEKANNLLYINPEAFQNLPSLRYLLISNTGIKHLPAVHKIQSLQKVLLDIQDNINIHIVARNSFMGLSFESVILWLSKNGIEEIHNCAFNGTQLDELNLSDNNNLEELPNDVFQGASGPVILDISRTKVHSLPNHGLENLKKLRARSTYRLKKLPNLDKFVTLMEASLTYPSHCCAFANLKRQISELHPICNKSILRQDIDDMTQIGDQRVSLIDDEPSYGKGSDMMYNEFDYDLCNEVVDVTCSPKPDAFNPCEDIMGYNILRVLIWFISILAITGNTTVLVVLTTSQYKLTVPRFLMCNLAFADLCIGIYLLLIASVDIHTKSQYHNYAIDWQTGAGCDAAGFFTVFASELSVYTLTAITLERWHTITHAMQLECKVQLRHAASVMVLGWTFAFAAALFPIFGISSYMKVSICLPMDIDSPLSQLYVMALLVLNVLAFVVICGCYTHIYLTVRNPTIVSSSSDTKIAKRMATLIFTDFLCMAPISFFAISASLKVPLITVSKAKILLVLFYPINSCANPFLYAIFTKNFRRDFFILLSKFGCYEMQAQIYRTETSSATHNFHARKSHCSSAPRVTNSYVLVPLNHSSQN
The assay can be described thus: Rat granulosa EC50 FSH (Assay B). It counts as cell-based. As to the method:
Example 25. Rat granulosa EC50 FSH (Assay B)
The assay was performed pursuant to the teaching of Yanofsky et al. (2006) Allosteric activation of the follicle-stimulating hormone (FSH) receptor by selective, nonpeptide agonists (JBC 281(19): 13226-13233, which is incorporated by reference in the disclosure of the invention).

In general, EC50 refers to the concentration giving half of the maximal effect.

As for `COc1cc2c(cc1-c1nccc(C(N)=O)n1)-c1c(c(C(=O)N(C)C(C)(C)C)nn1-c1cc(Cl)cc(Cl)c1)CO2` [Compound 111, N-tert-butyl-8-(4-carbamoylpyrimidin-2-yl)-1-(3,5-dichlorophenyl)-7-methoxy-N-methyl-1,4-dihydrochromeno[4,3-c]pyrazole-3-carboxamide], the EC50 lay within 10 to 100 nM on FSHR and 101 to 500 nM in assay [1].

Regarding `CCN(C(=O)c1nn(-c2cc(Cl)cc(Cl)c2)c2c1COc1cc(OC)c(-c3ccn(C)n3)cc1-2)S(=O)(=O)CC` [Compound 188, 1-(3,5-dichlorophenyl)-N-ethyl-N-(ethylsulfonyl)-7-methoxy-8-(1-methyl-1H-pyrazol-3-yl)-1,4-dihydrochromeno[4,3-c]pyrazole-3-carboxamide], the EC50 on FSHR is under 10 nM; in assay [1], 101 to 500 nM.

Consider `COc1cc2c(cc1-c1c[nH]nn1)-c1c(c(C(=O)N(C)C(C)(C)C)nn1-c1ccsc1)CO2` [Compound 194, N-tert-butyl-7-methoxy-N-methyl-1-(thiophen-3-yl)-8-(1H-1,2,3-triazol-4-yl)-1,4-dihydrochromeno[4,3-c]pyrazole-3-carboxamide], for which the EC50 on FSHR was under 10 nM; in assay [1], over 500 nM.

Regarding `COc1cc(-c2cc3c(cc2OC)OCc2c(C(=O)N(C)C(C)(C)C)nn(-c4cc(Cl)cc(Cl)c4)c2-3)cc(C(N)=O)n1` [Compound 117, N-tert-butyl-8-(2-carbamoyl-6-methoxypyridin-4-yl)-1-(3,5-dichlorophenyl)-7-methoxy-N-methyl-1,4-dihydrochromeno[4,3-c]pyrazole-3-carboxamide], the values for the EC50 (on FSHR; in assay [1]) were under 10 nM and 10 to 100 nM, respectively.

Regarding `COc1cc(Cl)cc(-n2nc(C(=O)N3CCOCC3(C)C)c3c2-c2cc(-c4cncc(C(N)=O)c4)c(OC)cc2OC3)c1` [Compound 157], the EC50 (at FSHR; in assay [1]) was under 10 nM each time.

Take `COc1cc2c(cc1-c1ccn(C)n1)-c1c(c(C(=O)N3CC[S+]([O-])CC3(C)C)nn1-c1cc(Cl)cc(Cl)c1)CO2` (centres unmarked) [Compound 5, 4-{[1-(3,5-dichlorophenyl)-7-methoxy-8-(1-methyl-1H-pyrazol-3-yl)-1H,4H-chromeno[4,3-c]pyrazol-3-yl]carbonyl}-3,3-dimethyl-1$1^4,4-thiomorpholin-1-one]: the EC50 at FSHR was in the range of 10 to 100 nM; in assay [1] it was 101 to 500 nM.

As to `COc1cc2c(cc1-c1cncc(C(N)=O)c1)-c1c(c(C(=O)N(C)C(C)(C)C)nn1-c1cc(Cl)cc(Cl)c1)CO2` [Compound 171], the EC50 (at FSHR; in assay [1]) was under 10 nM each time.

Consider `COc1cc2c(cc1-c1ccn(C)n1)-c1c(c(C(=O)N3CCOCC3(C)C)nn1-c1cc(F)cc(Cl)c1)CO2` [Compound 29, (1-(3-chloro-5-fluorophenyl)-7-methoxy-8-(1-methyl-1H-pyrazol-3-yl)-1,4-dihydrochromeno[4,3-c]pyrazol-3-yl)(3,3-dimethylmorpholino)methanone], for which the EC50 fell in the range of 10 to 100 nM on FSHR and 101 to 500 nM in assay [1].

Consider `COc1cc2c(cc1-c1cccc(C#N)c1)-c1c(c(C(=O)N(C)C(C)(C)C)nn1-c1cc(Cl)cc(Cl)c1)CO2` [Compound 18, N-tert-butyl-8-(3-cyanophenyl)-1-(3,5-dichlorophenyl)-7-methoxy-N-methyl-1,4-dihydrochromeno[4,3-c]pyrazole-3-carboxamide], for which the EC50 at FSHR is 10 to 100 nM; in assay [1] it was 101 to 500 nM.

In the case of `CNC(=O)Cn1cc(-c2cc3c(cc2OC)OCc2c(C(=O)N(C)C(C)(C)C)nn(-c4cc(Cl)cc(Cl)c4)c2-3)cn1` [Compound 91, N-tert-butyl-1-(3,5-dichlorophenyl)-7-methoxy-N-methyl-8-(1-(2-(methylamino)-2-oxoethyl)-1H-pyrazol-4-yl)-1,4-dihydrochromeno[4,3-c]pyrazole-3-carboxamide], the EC50 was under 10 nM on FSHR and 10 to 100 nM in assay [1].

In the case of `COc1cc2c(cc1-c1cncc(C(N)=O)c1C)-c1c(c(C(=O)N(C)C(C)(C)C#N)nn1-c1cc(F)cc(F)c1)CO2` [Compound 119, 8-(5-carbamoyl-4-methylpyridin-3-yl)-N-(2-cyanopropan-2-yl)-1-(3,5-difluorophenyl)-7-methoxy-N-methyl-1,4-dihydrochromeno[4,3-c]pyrazole-3-carboxamide], the EC50 is under 10 nM at FSHR and 101 to 500 nM in assay [1].

With `COc1cc2c(cc1-c1cccnc1F)-c1c(c(C(=O)N3CC[S+]([O-])CC3(C)C)nn1-c1cc(Cl)cc(Cl)c1)CO2` (centres unmarked) [Compound 6, (1-(3,5-dichlorophenyl)-8-(2-fluoropyridin-3-yl)-7-methoxy-1H,4H-chromeno[4,3-c]pyrazol-3-yl)(S-oxo-3,3-dimethylthiomorpholino)methanone], the EC50 at FSHR was under 10 nM; in assay [1] it was 101 to 500 nM.

With `COc1cc(Cl)cc(-n2nc(C(=O)N(C)C(C)(C)C)c3c2-c2cc(-c4cncc(C(N)=O)c4)c(OC)cc2OC3)c1` [Compound 156], the values for the EC50 (on FSHR; in assay [1]) were under 10 nM and 10 to 100 nM, respectively.

Regarding `COc1cc2c(cc1-c1ccn(C)n1)-c1c(c(C(=O)N(C)C(C)(C)C#N)nn1-c1cc(F)cc(F)c1)CO2` [Compound 106, N-(2-cyanopropan-2-yl)-1-(3,5-difluorophenyl)-7-methoxy-N-methyl-8-(1-methyl-1H-pyrazol-3-yl)-1,4-dihydrochromeno[4,3-c]pyrazole-3-carboxamide], the values for the EC50 (at FSHR; in assay [1]) were 10 to 100 nM and over 500 nM, respectively.

For the compound `COc1cc2c(cc1-c1cncc(CO)c1)-c1c(c(C(=O)N3CCOCC3(C)C)nn1-c1cc(Cl)cc(Cl)c1)CO2` [Compound 24, (1-(3,5-dichlorophenyl)-8-(5-(hydroxymethyl)pyridin-3-yl)-7-methoxy-1,4-dihydrochromeno[4,3-c]pyrazol-3-yl)(3,3-dimethylmorpholino)methanone], the EC50 is under 10 nM on FSHR and 10 to 100 nM in assay [1].

As for `COc1cc(OC)cc(-n2nc(C(=O)N(C)C(C)(C)C)c3c2-c2cc(-c4nn(C)cc4Br)c(OC)cc2OC3)c1` [Compound 145, 8-(4-bromo-1-methyl-1H-pyrazol-3-yl)-N-tert-butyl-1-(3,5-dimethoxyphenyl)-7-methoxy-N-methyl-1,4-dihydrochromeno[4,3-c]pyrazole-3-carboxamide], the figures for the EC50 (on FSHR; in assay [1]) were under 10 nM and 101 to 500 nM, respectively.

With `COc1cc2c(cc1-c1cc(C(N)=O)ncn1)-c1c(c(C(=O)N(C)C(C)(C)C)nn1-c1cc(Cl)cc(Cl)c1)CO2` [Compound 114, N-tert-butyl-8-(6-carbamoylpyrimidin-4-yl)-1-(3,5-dichlorophenyl)-7-methoxy-N-methyl-1,4-dihydrochromeno[4,3-c]pyrazole-3-carboxamide], the EC50 was 10 to 100 nM on FSHR and 101 to 500 nM in assay [1].

With `COc1cc2c(cc1-c1ccn(C)n1)-c1c(c(C(=O)N(CCO)C(C)(C)C)nn1-c1cc(Cl)cc(Cl)c1)CO2` [Compound 122, N-tert-butyl-1-(3,5-dichlorophenyl)-N-(2-hydroxyethyl)-7-methoxy-8-(1-methyl-1H-pyrazol-3-yl)-1,4-dihydrochromeno[4,3-c]pyrazole-3-carboxamide], the EC50 lay within 10 to 100 nM on FSHR and 101 to 500 nM in assay [1].

Turning to `COc1cc2c(cc1-c1cnn(CC(N)=O)c1)-c1c(c(C(=O)N3CCOCC3(C)C)nn1-c1cc(F)cc(Cl)c1)CO2` [Compound 69, 2-(4-(1-(3-chloro-5-fluorophenyl)-3-(3,3-dimethylmorpholine-4-carbonyl)-7-methoxy-1,4-dihydrochromeno[4,3-c]pyrazol-8-yl)-1H-pyrazol-1-yl)acetamide], the results for the EC50 (at FSHR; in assay [1]) were under 10 nM and 10 to 100 nM, respectively.

The record behind these values is patent US10941152B2, “Pyrazole compounds as modulators of FSHR and uses thereof” (TOCOPHERX, INC., priority 2014, dated 2021).
